Experimental data taken from paper PMC8047011, “Enantiomers of 2-methylglutamate and 2-methylglutamine selectively impact mouse brain metabolism and behavior” (Scientific Reports, 2021).

Key:
human glutaminase GLS1 = biological target: T1, human glutaminase GLS1 (Homo sapiens, UniProt O94925); test: Catalysis of 2MeGln hydrolysis by GLS1 glutaminase; format: biochemical
T1 sequence (O94925 55-669): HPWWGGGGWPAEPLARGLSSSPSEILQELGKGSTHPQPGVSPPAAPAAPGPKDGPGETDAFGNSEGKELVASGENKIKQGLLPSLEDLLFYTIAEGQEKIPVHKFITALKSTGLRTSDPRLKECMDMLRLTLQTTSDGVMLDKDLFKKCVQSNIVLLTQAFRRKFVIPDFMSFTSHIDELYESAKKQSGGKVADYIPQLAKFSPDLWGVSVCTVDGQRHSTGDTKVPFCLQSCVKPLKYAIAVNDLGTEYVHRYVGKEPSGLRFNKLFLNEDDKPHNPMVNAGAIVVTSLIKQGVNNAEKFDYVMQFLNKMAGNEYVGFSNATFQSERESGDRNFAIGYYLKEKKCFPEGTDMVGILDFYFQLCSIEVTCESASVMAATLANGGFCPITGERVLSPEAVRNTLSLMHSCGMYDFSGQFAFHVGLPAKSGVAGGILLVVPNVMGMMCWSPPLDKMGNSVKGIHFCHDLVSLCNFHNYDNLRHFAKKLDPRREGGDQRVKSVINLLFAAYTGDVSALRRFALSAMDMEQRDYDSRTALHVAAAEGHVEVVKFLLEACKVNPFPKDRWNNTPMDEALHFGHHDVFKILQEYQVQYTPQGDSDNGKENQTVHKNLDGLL
Method: The procedure was adapted from an existing protocol. To a reaction mixture in a 1.5 mL microcentrifuge tube containing 10 mM rac-2MeGln or L-Gln-^13C2 in 100 mM phosphate pH 7.4 buffer made in 20% atom ^18O water, recombinant GLS1 (final concentration: 5 ng/mL) was added. The tubes were incubated in a preheated thermomixer at 37 °C and periodically shaken at 600 rpm (30 s on, 30 s off). 5 μL aliquots were collected in triplicate every 5 min and immediately diluted with 195 μL of cold 60% ACN containing 10 μM Glu-d5 and Gln-d5 as internal standards in a 96 well plate. After collecting all samples, the plate was shaken at 1000 rpm for 5 min at room temperature, and then stored at − 80 °C. Before analysis the plate was thawed and 10 μL aliquots of the extracted reaction mixtures were diluted with 190 μL of 90% acetonitrile.
The quantification of the newly formed 2MeGlu in the presence of the preexisting trace amounts was performed in the following way. Peak area ratio of Glu-^13C2 to Glu-^13C2^18O was calculated in all samples containing Glu-^13C2. The mean ratio value was then applied to calculate the hypothetical peak area of the newly formed 2MeGlu based on the directly measured 2MeGlu-^18O peak area. The ratio of the newly formed 2MeGlu peak area and the total 2MeGlu peak area was applied to calculate the concentration of the newly formed 2MeGlu from the total 2MeGlu concentration determined directly using the calibration curve.

[1] = Metabolism in synaptosomes (GABA shunt, glutamate-glutamine cycle); format: in vitro ADME, mouse; conditions: mouse, mouse cerebral synaptosomes; synaptosomes preloaded with 100 μM substrate, 37 °C; estimated; read-out: Synaptosomal concentration half life
Method: (§1) To each tube, a 5 μL aliquot of a test compound solution (final concentration 100 μM) in Buffer KRP or Buffer KRP alone were added. The samples were incubated for 15 min at 37 °C, briefly chilled on ice, and then immediately centrifuged and washed twice by resuspension-centrifugation with Buffer S (0.5 mL). The pellets were then resuspended in Buffer KRP (500 μL). Samples were then immediately centrifuged or incubated for 5, 10, 15, 20, 25 or 30 min at 37 °C and then centrifuged and washed by resuspension-centrifugation with Buffer S (0.5 mL). Resulting pellets were resuspended in 170 μL of 0.1% aqueous formic acid, mixed with 330 μL of ACN. To each tube, 5 μL of 2MeGlu solution (final concentration 100 μM) in Buffer KRP or Buffer KRP alone were added. The samples were incubated for 15 min at 37 °C, briefly chilled on ice, and then immediately centrifuged and washed twice by resuspension-centrifugation with Buffer S (0.5 mL). The pellets were then resuspended in Buffer KRP (200 μL). Samples were then kept on ice or incubated for 10, 20, 30, 40 or 50 min at 37 °C and then chilled on ice. Then all samples were centrifuged, 200 μL of supernatants were collected, and the pellets were suspended in 200 μL of 80% ACN. Supernatants and pellet suspensions were diluted with 250 μL of ACN and 50 μL of 10 μM d[…] in water as internal standard.

[2] = tested on: mouse cerebral synaptosomes; test: as above; format: in vitro ADME; conditions: synaptosomes preloaded with 100 μM substrate
Method: as §1

[3] = biological target: human glutamine synthetase (Homo sapiens, UniProt P15104); parameters: method as in PMID 5320388; conditions: identical conditions with L-Glu; cited from earlier work
human glutamine synthetase, sequence (P15104 whole entry): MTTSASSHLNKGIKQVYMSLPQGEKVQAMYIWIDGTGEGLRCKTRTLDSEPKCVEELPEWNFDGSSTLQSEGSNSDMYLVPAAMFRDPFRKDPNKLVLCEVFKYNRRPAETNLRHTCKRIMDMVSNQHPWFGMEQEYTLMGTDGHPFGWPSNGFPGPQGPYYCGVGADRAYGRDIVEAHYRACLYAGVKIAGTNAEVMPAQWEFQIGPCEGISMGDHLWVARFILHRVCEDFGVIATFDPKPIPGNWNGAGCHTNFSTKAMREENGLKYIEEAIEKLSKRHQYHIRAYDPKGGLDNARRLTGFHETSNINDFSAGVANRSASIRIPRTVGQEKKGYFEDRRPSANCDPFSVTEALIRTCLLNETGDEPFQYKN

[4] = tested on: mouse cerebral synaptosomes; test: Synaptosomal neurotransmitter uptake assay; format: cell-based; conditions: 10 μM substrate, 37 °C
Method: Mouse cerebral synaptosomes were prepared according to published methods. See Supplementary Methods for details. 500 μL aliquots of the synaptosome suspension were transferred to pre-chilled microcentrifuge tubes for experiments. Centrifugations were at 8000g for 4 min at 4 °C, unless stated otherwise, and all samples were stored at − 80 °C.
To each tube, 5 μL of a test compound solution (final concentration 10 μM) in Buffer KRP or Buffer KRP alone were added. Samples were incubated at 4 °C or 37 °C for 1, 10, or 30 min and then immediately centrifuged and washed twice by resuspension–centrifugation with Buffer S (0.5 mL). Resulting pellets were resuspended in 170 μL of 0.1% aqueous formic acid and mixed with 330 μL of ACN.
Buffer S (4 mL, × 1) and Buffer KRP (2 mL, × 3). The resulting pellet was resuspended in 3 mL of Buffer KRP and filtered on Ultrafree-CL 5 μm PVDF centrifugal device (1,000g for 4 min at 4 °C). The filtrate was diluted to 15 mL with ice cold Buffer KRP and kept on ice. The synaptosome preparation was used immediately in the following experiments.
Synaptosomal neurotransmitter uptake assay
96-well plate experiments: 250 μL aliquots of the synaptosome suspension were transferred to two 0.8-mL 96 well plates, one on ice (0 °C samples only) and one in a thermoblock (37 °C samples only), and equilibrated for 10 min. 5 μL of a test compound (0.5 mM; final concentration: 10 μM) in Buffer KRP or Buffer KRP blank were added 10, 20 or 30 min before the incubation termination. “0 min” samples were prepared by placing the test compound solution in a separate pre-chilled V-shape bottom 2-mL 96 well plate; at the end of incubation 200 μL aliquots of all samples were transferred to the 2-mL 96 well plate and centrifuged (2,500g for 15 min at 4 °C) immediately. The resulting pellets were rinsed with Buffer KRP, followed by centrifugation, twice, then resuspended in 200 μL of 60% ACN containing 2.5 μM Glu-d5 as internal standard and stored at –80 °C until analysis. […]

[5] = tested on: mouse cerebral synaptosomes; test: Potassium-induced neurotransmitter release assay; format: cell-based; conditions: preincubated with 100 μM substrate 15 min 37 °C; high-potassium KRP buffer
Method: To each tube, 2.5 μL of a test compound solution (final concentration 100 μM) in Buffer KRP or Buffer KRP alone were added. Samples were incubated for 15 min at 37 °C, briefly chilled on ice, and then immediately centrifuged and washed twice with Buffer KRP. The resulting pellets were then resuspended in either Buffer KRP (500 μL) or Buffer K-KRP (500 μL). Samples were immediately centrifuged or incubated for 5, 10 or 15 min at 37 °C, then centrifuged and washed with Buffer KRP. Resulting pellets were resuspended in 400 μL of 60% ACN containing 2.5 μM Glu-d5 and 2.5 μM Gln-d5 as internal standards.

[6] = tested on: primary murine cerebral astrocytes; test: Astrocyte transport and metabolism of 2MeGlu; format: cell-based, mouse; conditions: 1 mM substrate, 2 h, 37 °C
Method: Primary astrocytes from C57Bl/6 mouse brain were cultured in complete astrocyte growth medium at 37 °C at 5% CO2 on 96 well plates. Cells were exposed to 1 mM compound in 100 μL medium for 2 h at 37 °C. Supernatants were collected, centrifuged at 2500g for 10 min at 4 °C. 10 μL aliquots were diluted with 190 μL 60% ACN containing 10 μM Glu-d5 and Gln-d5. Cells were quickly washed with 250 μL cold PBS twice and suspended in 200 μL of 60% ACN containing 10 μM Glu-d5 and Gln-d5. All samples were shaken at 1000 rpm for 5 min and then stored at – 80 °C.

[7] = tested on: murine primary cerebral cortical neuron cultures; test: Neuronal transport and metabolism of 2MeGln; format: cell-based, mouse; conditions: 1 mM substrate, 2 h, 37 °C; data not shown
Method: The procedure was adapted from an existing protocol. Wild-type (WT) C57BL/6J mating pairs were housed according to Stanford IACUC protocol. On day P0, pups were euthanized and brains dissected in cold HBSS (without Ca^2+ or Mg^2+). The forebrain was microdissected to isolate the cortex and hippocampus. These brain regions were minced in cold HBSS before trypsinization at 37 °C for 9 min, followed by trituration, through 2 glass polished Pasteur pipettes. The resulting cell suspension was passed through a 100 μm filter to isolate single cells which were sedimented at 250g for 5 min. The cell pellet was then resuspended in complete Neural Basal Media (Neural Basal Media + Glutamax + B-27 Plus Supplement + Pen/Strep) + 10%FBS, counted using a hemocytometer and plated at 1 × 10^6 cells per mL into a 24 well plate (1 mL per well) coated with poly-D-lysine and laminin. Cultures were grown at 37 °C/5% CO2 in a tissue culture incubator. Media was exchanged 50% on day 1 in vitro (1DIV) with fresh complete Neural Basal Media without FBS and thereafter every other day with the same media. On 3DIV the media was spiked with 2 μM AraC to limit glial growth. On 10DIV the media was completely replaced with 500 μL Neural Basal Media containing B-27 Plus Supplement + Pen/Strep without added Glutamax but instead containing 1 mM substrate at 37 °C for 2 h. […]

SMILES: C[C@](N)(CCC(N)=O)C(=O)O [(S)-2MeGln, (S)-2-methylglutamine]
- Substrate for GLS1 (human glutaminase GLS1): substrates of GS and GLS1, respectively

SMILES: CC(N)(CCC(=O)O)C(=O)O (racemic) [rac-2MeGlu, 2-methylglutamate]
- half-life at 100 μM [1]: 21 min
- Metabolism along the GABA shunt in synaptosomes [2]: not associated with the concurrent appearance of 4APA or any other 2Me analogue within the GABA shunt
- Inorganic phosphate released with GS and ATP relative to L-Glu [3]: 50%

SMILES: CC(N)CCC(=O)O (racemic) [rac-4APA, 4-aminopentanoic acid]
- Transport into synaptosomes [4]: transported into synaptosomes
- Potassium-induced release from preloaded synaptosomes [5]: exhibited high potassium concentration-dependent release

SMILES: N[C@@H](CCC(=O)O)C(=O)O [L-[1,2-^13C]Glu, reference compound]
- Extracellular concentration of amide product (2MeGln or [1,2-13C]Gln), astrocyte cultures [6]: 5.0 nmol/well
- Intracellular concentration of amide product (2MeGln or [1,2-13C]Gln) in astrocytes [6]: 0.26 nmol/well

SMILES: NC(=O)CC[13C@H](N)[13C](=O)O [L-[1,2-^13C]Gln]
- Intracellular [1,2-13C]Gln relative to 2MeGln in neurons [7]: twofold lower
- Intracellular [1,2-13C]Glu relative to 2MeGlu in neurons [7]: over fivefold lower

SMILES: NC(=O)CC[C@H](N)C(=O)O [Gln, L-glutamine, reference compound]
- Apparent reaction rate of GLS1 hydrolysis (human glutaminase GLS1; 10 mM substrate, 5 ng/mL enzyme, phosphate pH 7.4): 65 µM/min
